Structures are written as SMILES.

The test system of this assay is CHO DG44 cells. The assay can be described thus: Transient IgG expression, batch titer by ELISA, VPA concentration series (Example 1). Format: cell-based, Chinese Hamster. As to conditions: for Fold increase over control / Batch titer: IgG, day 5 after transfection; for Batch titer: 37° C. As to the method: 10 million suspension-adapted HEK293E cells were resuspended in 0.5 ml of Ex-Cell 293 HEK 293 serum-free medium with 4 mmol/l L-glutamine (Cat. No. 14571C-1000 M; Lot No. 6A0093; SAFC Biosciences, Lenexa, Kans., USA, “Ex-Cell” medium; note: “Ex-Cell” medium-as used herein-refers to a medium comprising 4 mmol/l L-glutamine) in a 50-ml filter tube each (TPP AG, Trasadingen, Switzerland; Cat. No. 87050, Lot 20050174). In a separate set, 10 million suspension-adapted CHO DG44 cells were resuspended in 0.5 ml of ProCHO5 serum-free medium with 4 mmol/[…] hypoxanthine and 0.194 g/l thymidine (BioWhittaker (Lonza), Belgium; Cat. No. BE12-[…]; Lot No. 7 MB0040; “ProCHO5” medium; note: “ProCHO5” medium-as used herein-refers to a medium comprising 4 mmol/[…] hypoxanthine and 0.194 g/l thymidine) in a 50-ml filter tube each (TPP AG, Trasadingen, Switzerland; Cat. No. 87050, Lot 20050174). Then 12.5 μg plasmid DNA at a concentration of 1 μg/μl was added in each tube with the following composition 50% (6.25 μg) p-LC (SEQ ID NO: 1) 50% (6.25 μg) p-HC (SEQ ID NO: 3). Plasmid p-LC comprises the genetic information for the production of the light chain of an IgG antibody, plasmid p-HC comprises the genetic information for the production of the heavy chain of an IgG antibody. The particular vector constructs used in the present invention can also be obtained from the inventors. The inventors can be contacted via e-mail at […]. Moreover, commercial services do exist that produce any desired nucleotide sequence even comprising several kilobase pairs including complete expression cassettes in plasmid backgrounds (e.g., Invitrogen, Carlsbad, USA; Geneart, Germany.) Thus, providing the genetic sequence information of the plasmids should enable one of ordinary skill in the art to order the plasmids of the present invention at one of the commercial services listed. After shortly mixing the DNA with the cells by gentle shaking, 25 μg of 25-kd linear polyethyleneimine (“PEI”; Polysciences, Eppelheim, Germany; [2]) were added at a concentration of 1 μg/μl to each of the tubes. After shortly mixing by gentle shaking, the filter tubes containing the cells together with the DNA and PEI were transferred into an orbital shaker (Kühner Shaker Cabinet ISF-4-W, “Kühner shaker”, Kühner AG, Birsfelden, Switzerland), and the cells were incubated for 4 hours at 37° C. in a 5% CO2 atmosphere under shaking at 180 rpm. After that time, 4.5 ml of Ex-Cell medium were added to each of the filter tubes containing HEK 293 cells and 4.5 ml of Pro-CHO5 were added to each of the filter tubes containing CHO DG44 cells. Then, valproic acid was added to each of the tubes at the corresponding final concentration. The cells then were returned into the Kühner shaker and incubated at 37° C. in a 5% CO2 atmosphere under shaking at 180 rpm. […] The ELISA was performed as published in prior art. In short, Goat anti-human kappa light chain IgG (Biosource) was used for coating the ELISA-plates, and with AP-conjugated goat anti-human gamma chain IgG (Biosource) the synthesized IgG1 was detected. NPP was used as a substrate for the alkaline phosphatase. Absorption was measured at 405 nm against 490 nm using a microplate reader (SPECTRAmaxTM340; Molecular Devices, Palo Alto, Calif., USA).
For orientation: An ELISA detects its analyte on a solid surface through an enzyme-linked reagent.

Turning to `CCCC(CCC)C(=O)O` [VPA, valproic acid], the “Fold increase over control” value (0.05 mmol/l final VPA) worked out at 1 fold; the “Fold increase over control” value (0.1 mmol/l final VPA) was 1.3 fold; the “Fold increase over control” value (0.2 mmol/l final VPA) amounted to 1.8 fold; the “Fold increase over control” value (0.5 mmol/l final VPA) is reported as 2.1 fold; the “Fold increase over control” value (1 mmol/l final VPA) amounted to 1.9 fold; the “Fold increase over control” value (2 mmol/l final VPA) worked out at 1.3 fold. Besides, the “Fold increase over control” value (3 mmol/l final VPA) was 1.0 fold. Besides, the Batch titer came to 7.4 ± 1.1 mg/L (0.05 mmol/l final VPA); 10.0 ± 1.5 mg/L (0.1 mmol/l final VPA); 13.7 ± 1.2 mg/L (0.2 mmol/l final VPA); 16.3 ± 1.3 mg/L (0.5 mmol/l final VPA); 14.4 ± 1.2 mg/L (1 mmol/l final VPA); 10.0 ± 0.9 mg/L (2 mmol/l final VPA). This compound came in with a Batch titer (3 mmol/l final VPA) of 7.4 ± 1.2 mg/L. The optimal final concentration entry (for batch titer, CHO DG44 cells, day 5) is “around 0.5 mmol/l”.

The record behind these values is patent publication US20090023186A1, “USE OF VALPROIC ACID FOR ENHANCING PRODUCTION OF RECOMBINANT PROTEINS IN MAMMALIAN CELLS” (EXCELLGENE SA, priority 2007, published 2009).
